From patent publication US4104384A, “1-(2'-Aroyl eth-1'yl) 2-(4"-acetamido piperazine-1"yl methyl) benzimidazoles and their therapeutical applications” (priority 1975, dated 1978)

Columns and labels:
Shay's ulcer = experiment: Anti-ulcerous properties: ulceration caused by ligature of the pylorus (Shay's ulcers), intraduodenal; format: in vivo; settings: rat, read-out: Percentage reduction of Shay's ulcer
Description: Furthermore, the compounds of formula (I) administered intraduodenally reduce the ulceration area caused by ligature of the pylorus of a rat (Shay's ulcers).

stress ulcers = experiment: Anti-ulcerous properties: ulcerations in rat under stress for 7 hours, oral; format: in vivo; settings: po, read-out: Percentage reduction of stress ulcers
arterial pressure = experiment: Anti-hypertensive: arterial pressure in genetically hyperstressed vigil rats (S.H.R.); format: in vivo, rat; settings: 10 mg/kg/p.o., 4 hours
Experimental: The compounds of formula (I) are capable, 4 hours after their oral injection, of bringing the arterial pressure down to normal in genetically hyperstressed vigil rats (S.H.R.).

[1] = Acute toxicity, lethal dose 50; settings: mouse, in vivo, po, read-out: Lethal dose 50 (mouse) / DL 50 (mouse) (converted)
volume of urine emitted = experiment: Diuretic: volume of urine emitted; format: in vivo; settings: po; rat, urine volume for 6 hours following administration; read-out: DE 50 (diuretic)
Experimental: The compounds of formula (I), administered orally to a rat, increase the volume of urine emitted, relative to controls, the volume being measured for the 6 hours following administration.

gastric secretion = experiment: Gastric antisecretory properties: gastric secretion after Shay ligature, intraduodenal; format: in vivo; settings: intraduodenal, rat, read-out: Reduction of volume of gastric secretion
Description: Administered intraduodenally to a rat, the compounds of formula (I) are capable of reducing gastric secretion measured after Shay ligature.

[2] = test system: bronchoconstriction caused by acetylcholine; experiment: Anticholinergic and antibronchoconstrictive: bronchoconstriction by intravenous acetylcholine, Konzett's method; format: in vivo; settings: Cavia porcellus, intraduodenal; guinea-pig, i.d., 25 mg/kg; read-out: Percentage inhibition of the bronchoconstriction
Description: Injected intravenously or intraduodenally, the compounds of formula (I) are capable of opposing bronchoconstriction caused in a guinea-pig by intravenous injection of acetylcholine and evaluated by Konzett's method.

jejunal ansa of a rabbit = experiment: Spasmolytic in vivo: contractions of the jejunal ansa caused by electric stimulation; settings: 26.5 mg/kg/i.d.
Description: (§1) The compounds of formula (I), administered intraduodenally are capable of reducing the contractions of the jejunal ansa of a rabbit, caused by electric stimulation.

painful stretchings = experiment: Analgesic: painful stretchings following intraperitoneal injection of acetic acid; format: in vivo; settings: po; mouse, 100 mg/kg/p.o.; read-out: Percentage diminution painful stretchings
Description: The compounds of formula (I), administered orally to a mouse, are capable of reducing the number of painful stretchings following intraperitioneal injection of acetic acid.

[3] = test system: uterine horn of a female rabbit; experiment: Spasmolytic in vivo: contractions of the uterine horn caused by electric stimulation; settings: 53 mg/kg/i.d.
Experimental: as §1
The same test was studied with the uterine horn of a female rabbit.
For example, compound No 73.0442, administered at a dose of 53 mg/kg/i.d. reduces by 85 % for more than an hour, the contractions of the uterine horn of a female rabbit caused by electric stimulation.

Row | Structure (SMILES) | inhibition in vivo at 40 mg/kg (Shay's ulcer; 40 mg/kg/i.d.) [%] | inhibition in vivo at 20 mg/kg (stress ulcers; 20 mg/kg/p.o.) [%] | arterial pressure brought down to normal (arterial pressure) | LD50 [1] [mg/kg] | ED50 (volume of urine emitted) [mg/kg] | inhibition in vivo at 25 mg/kg (gastric secretion; 25 mg/kg/i.d.) [%] | inhibition in vivo at 25 mg/kg [2] [%] | inhibition in vivo at 7.6 mg/kg (Shay's ulcer; 7.6 mg/kg/i.d.) [%] | Diminution of contractions of the jejunum for more than an hour (jejunal ansa of a rabbit) [%] | inhibition in vivo at 5.2 mg/kg (stress ulcers; 5.2 mg/kg/p.o.) [%] | inhibition in vivo at 100 mg/kg (painful stretchings) [%] | reduction of the contractions of the uterine horn for more than an hour [3] [%] | inhibition in vivo at 2.1 mg/kg (gastric secretion; 2.1 mg/kg/i.d.) [%]
1 | COc1ccccc1C(=O)CCn1c(CN2CCN(CC(=O)NC(C)C)CC2)nc2ccccc21 [75 0011] | 78 | 51 | 4 animals out of 7 | 120 | 1 | 75 |  |  |  |  |  |  | 
2 | CC(C)NC(=O)CN1CCN(Cc2nc3ccccc3n2CCC(=O)c2ccccc2)CC1 [73 0442] |  |  |  | 798 |  |  | 100 | 88 | 67 | 99 | 80 | 85 | 68
